What was measured:
[1] = biological target: T1, Tyrosine-protein kinase JAK3 (Homo sapiens, UniProt P52333); assay: (§1) Enzyme Assay: The JAK inhibitory activities of compounds of the present invention were measured.The enzymes (JAK1, JAK2, JAK3 and Tyk2) were purchased from Carna Biosciences, Inc.As the substrate for the enzymes (hereinafter referred to as the substrate), LANCE Ultra ULight-JAK-1 (Tyr1023) Peptide (manufactured by PerkinElmer Co., Ltd.) was used.As the antibody for detecting phosphorylation of the substrate, LANCE Ultra Europium-anti-phospho tyrosine antibody (PT66) (manufactured by PerkinElmer Co., Ltd.) was used.The other reagents are purchased from the following suppliers.Adenosine triphosphate (ATP): Sigma-Aldrich4-(2-Hydroxyethyl)-1-piperazineethanesulfonic acid (HEPES): DOJINDO LABORATORIESGlycol ether diamine tetraacetic acid (EGTA): DOJINDO LABORATORIESMagnesium chloride (MgCl2): Wako Pure Chemical Industries, Ltd.Dithiothreitol (DTT): Wako Pure Chemical Industries, Ltd.Tween 20: Sigma-AldrichEthylenediaminetetraacetic acid (EDTA): DOJINDO LABORATORIESThe compounds of the present invention, the enzymes (JAK1, JAK2, JAK3 and Tyk2), the substrate and ATP were used for the assays after diluted with the assay buffer.The composition of the assay buffer is given below.HEPES (pH7.5): 50 mMEGTA: 1 mMMgCl2: 10 mMDTT: 2 mMTween 20: 0.01% (wt/wt)Dilutions were made at such concentrations and dispensed on a well plate, which will be described later, in such volumes that the following final concentrations would be achieved on the well plate. The enzyme concentrations and the ATP concentrations in the respective enzyme (JAK1, JAK2, JAK3 and Tyk2) assays were as follows.JAK1 enzyme assay; the enzyme concentration was 0.5 μg/mL, and the ATP concentration was 70 μM.JAK2 enzyme assay; the enzyme concentration was 0.013 μg/mL, and the ATP concentration was 10 μM.JAK3 enzyme assay; the enzyme concentration was 0.020 μg/mL, and the ATP concentration was 3 μM.Tyk2 enzyme assay; the enzyme concentration was 0.25 μg/mL and the ATP concentration was 20 μM.The concentration of the substrate for the enzymes was 25 nM.The concentration of EDTA was 15 mM.The concentration of PT66 was 2 nM.
T1 sequence (P52333 whole entry): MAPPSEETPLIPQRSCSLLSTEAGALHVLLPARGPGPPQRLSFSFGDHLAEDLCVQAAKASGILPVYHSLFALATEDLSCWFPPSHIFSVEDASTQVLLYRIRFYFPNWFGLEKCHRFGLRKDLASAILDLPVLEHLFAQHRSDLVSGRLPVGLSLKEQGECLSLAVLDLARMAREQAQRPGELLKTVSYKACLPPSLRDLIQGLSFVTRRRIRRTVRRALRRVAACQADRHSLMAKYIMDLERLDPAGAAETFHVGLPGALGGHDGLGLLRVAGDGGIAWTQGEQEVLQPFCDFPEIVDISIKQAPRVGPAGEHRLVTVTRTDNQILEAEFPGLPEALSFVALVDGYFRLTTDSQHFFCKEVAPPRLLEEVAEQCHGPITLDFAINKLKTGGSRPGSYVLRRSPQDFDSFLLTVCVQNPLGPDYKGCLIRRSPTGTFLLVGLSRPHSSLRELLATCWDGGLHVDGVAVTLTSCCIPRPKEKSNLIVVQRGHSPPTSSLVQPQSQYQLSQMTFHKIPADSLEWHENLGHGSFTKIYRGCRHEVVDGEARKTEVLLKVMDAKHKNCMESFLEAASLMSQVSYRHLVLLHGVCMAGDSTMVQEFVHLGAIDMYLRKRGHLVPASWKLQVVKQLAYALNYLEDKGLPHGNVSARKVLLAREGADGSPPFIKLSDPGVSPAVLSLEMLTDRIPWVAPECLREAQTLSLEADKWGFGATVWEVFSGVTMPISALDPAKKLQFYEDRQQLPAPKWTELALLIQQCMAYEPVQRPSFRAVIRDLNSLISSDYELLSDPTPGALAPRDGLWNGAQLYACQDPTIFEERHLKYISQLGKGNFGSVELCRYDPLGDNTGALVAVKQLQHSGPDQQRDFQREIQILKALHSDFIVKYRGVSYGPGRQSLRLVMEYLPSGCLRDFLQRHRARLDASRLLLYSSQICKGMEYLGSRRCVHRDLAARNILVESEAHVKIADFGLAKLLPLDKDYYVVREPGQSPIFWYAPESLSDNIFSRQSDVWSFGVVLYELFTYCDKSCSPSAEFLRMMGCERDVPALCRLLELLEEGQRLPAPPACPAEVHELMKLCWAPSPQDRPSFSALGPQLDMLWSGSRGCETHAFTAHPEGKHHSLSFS

[2] = biological target: Tyrosine-protein kinase JAK1 (Homo sapiens, UniProt P23458); assay: as §1
Tyrosine-protein kinase JAK1, sequence (P23458 whole entry): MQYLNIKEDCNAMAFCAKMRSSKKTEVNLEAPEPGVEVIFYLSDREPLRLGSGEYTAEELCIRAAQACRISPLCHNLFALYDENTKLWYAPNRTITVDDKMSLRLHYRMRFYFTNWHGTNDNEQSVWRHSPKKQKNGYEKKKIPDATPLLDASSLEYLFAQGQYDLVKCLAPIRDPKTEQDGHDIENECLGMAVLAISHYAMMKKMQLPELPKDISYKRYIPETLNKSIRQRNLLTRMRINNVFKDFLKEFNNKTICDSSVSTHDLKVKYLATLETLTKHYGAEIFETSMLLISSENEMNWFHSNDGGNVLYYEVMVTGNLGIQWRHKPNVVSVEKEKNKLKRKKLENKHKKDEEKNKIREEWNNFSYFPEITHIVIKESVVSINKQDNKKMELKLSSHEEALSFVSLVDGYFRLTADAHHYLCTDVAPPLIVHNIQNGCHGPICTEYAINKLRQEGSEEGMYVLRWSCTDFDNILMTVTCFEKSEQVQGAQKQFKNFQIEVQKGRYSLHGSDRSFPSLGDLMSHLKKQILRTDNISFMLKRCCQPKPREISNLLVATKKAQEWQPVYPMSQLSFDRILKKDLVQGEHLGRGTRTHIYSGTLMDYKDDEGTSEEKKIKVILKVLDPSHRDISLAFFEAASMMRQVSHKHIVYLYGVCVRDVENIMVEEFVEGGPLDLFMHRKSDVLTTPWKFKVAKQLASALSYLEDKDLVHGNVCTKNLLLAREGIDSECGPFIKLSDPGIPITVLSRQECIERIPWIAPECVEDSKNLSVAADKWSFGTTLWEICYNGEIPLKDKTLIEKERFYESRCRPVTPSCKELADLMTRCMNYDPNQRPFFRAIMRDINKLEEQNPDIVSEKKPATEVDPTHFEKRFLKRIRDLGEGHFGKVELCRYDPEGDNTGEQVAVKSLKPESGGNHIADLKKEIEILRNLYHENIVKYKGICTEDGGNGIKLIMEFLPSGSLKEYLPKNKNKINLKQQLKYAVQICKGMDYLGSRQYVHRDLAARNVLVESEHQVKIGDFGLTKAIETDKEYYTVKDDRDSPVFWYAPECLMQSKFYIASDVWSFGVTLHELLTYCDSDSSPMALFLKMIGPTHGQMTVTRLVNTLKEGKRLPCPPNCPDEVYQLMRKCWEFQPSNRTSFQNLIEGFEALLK

[3] = biological target: Non-receptor tyrosine-protein kinase TYK2 (Homo sapiens, UniProt P29597); assay: as §1
Non-receptor tyrosine-protein kinase TYK2, sequence (P29597 whole entry): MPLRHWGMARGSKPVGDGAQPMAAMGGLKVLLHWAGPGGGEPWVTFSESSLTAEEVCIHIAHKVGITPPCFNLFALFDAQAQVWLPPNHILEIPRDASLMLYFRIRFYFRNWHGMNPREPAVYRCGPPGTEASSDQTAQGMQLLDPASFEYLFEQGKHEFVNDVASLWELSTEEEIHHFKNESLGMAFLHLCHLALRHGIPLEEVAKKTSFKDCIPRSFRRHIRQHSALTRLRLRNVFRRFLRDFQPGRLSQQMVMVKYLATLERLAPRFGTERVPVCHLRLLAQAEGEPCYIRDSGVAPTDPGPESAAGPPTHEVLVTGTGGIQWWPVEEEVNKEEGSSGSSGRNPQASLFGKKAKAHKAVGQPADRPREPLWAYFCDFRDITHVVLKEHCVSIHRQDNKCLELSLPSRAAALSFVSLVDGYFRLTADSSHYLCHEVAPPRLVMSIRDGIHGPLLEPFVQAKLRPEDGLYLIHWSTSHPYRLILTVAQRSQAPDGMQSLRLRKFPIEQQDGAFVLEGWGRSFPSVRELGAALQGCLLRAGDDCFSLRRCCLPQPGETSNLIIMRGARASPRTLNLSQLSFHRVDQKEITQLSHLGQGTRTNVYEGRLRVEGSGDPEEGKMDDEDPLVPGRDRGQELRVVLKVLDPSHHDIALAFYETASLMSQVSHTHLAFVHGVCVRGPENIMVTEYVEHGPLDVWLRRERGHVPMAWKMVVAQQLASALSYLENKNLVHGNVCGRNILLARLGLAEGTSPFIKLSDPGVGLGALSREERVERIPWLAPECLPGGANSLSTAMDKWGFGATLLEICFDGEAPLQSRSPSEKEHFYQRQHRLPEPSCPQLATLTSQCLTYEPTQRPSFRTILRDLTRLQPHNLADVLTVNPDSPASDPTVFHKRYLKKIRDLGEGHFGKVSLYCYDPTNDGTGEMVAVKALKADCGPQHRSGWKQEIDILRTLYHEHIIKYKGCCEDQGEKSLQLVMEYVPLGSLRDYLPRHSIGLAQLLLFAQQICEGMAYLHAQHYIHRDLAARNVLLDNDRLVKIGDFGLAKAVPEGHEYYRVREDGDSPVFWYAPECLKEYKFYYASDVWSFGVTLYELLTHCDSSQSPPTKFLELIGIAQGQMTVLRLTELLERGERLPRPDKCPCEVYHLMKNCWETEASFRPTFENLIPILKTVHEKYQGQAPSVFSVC

[4] = biological target: Tyrosine-protein kinase JAK2 (Homo sapiens, UniProt O60674); assay: as §1, with “plate.” for “plate. The enzyme concentrations and the ATP concentrations in the respective enzyme (JAK1, JAK2, JAK3 and Tyk2) assays were as follows.JAK1 enzyme assay; the enzyme concentration was 0.5 μg/mL, and the ATP concentration was 70 μM.JAK2 enzyme assay; the enzyme concentration was 0.013 μg/mL, and the ATP concentration was 10 μM.JAK3 enzyme assay; the enzyme concentration was 0.020 μg/mL, and the ATP concentration was 3 μM.Tyk2 enzyme assay; the enzyme concentration was 0.25 μg/mL and the ATP concentration was 20 μM.The concentration of the substrate for the enzymes was 25 nM.The concentration of EDTA was 15 mM.The concentration of PT66 was 2 nM.”
Tyrosine-protein kinase JAK2, sequence (O60674 whole entry): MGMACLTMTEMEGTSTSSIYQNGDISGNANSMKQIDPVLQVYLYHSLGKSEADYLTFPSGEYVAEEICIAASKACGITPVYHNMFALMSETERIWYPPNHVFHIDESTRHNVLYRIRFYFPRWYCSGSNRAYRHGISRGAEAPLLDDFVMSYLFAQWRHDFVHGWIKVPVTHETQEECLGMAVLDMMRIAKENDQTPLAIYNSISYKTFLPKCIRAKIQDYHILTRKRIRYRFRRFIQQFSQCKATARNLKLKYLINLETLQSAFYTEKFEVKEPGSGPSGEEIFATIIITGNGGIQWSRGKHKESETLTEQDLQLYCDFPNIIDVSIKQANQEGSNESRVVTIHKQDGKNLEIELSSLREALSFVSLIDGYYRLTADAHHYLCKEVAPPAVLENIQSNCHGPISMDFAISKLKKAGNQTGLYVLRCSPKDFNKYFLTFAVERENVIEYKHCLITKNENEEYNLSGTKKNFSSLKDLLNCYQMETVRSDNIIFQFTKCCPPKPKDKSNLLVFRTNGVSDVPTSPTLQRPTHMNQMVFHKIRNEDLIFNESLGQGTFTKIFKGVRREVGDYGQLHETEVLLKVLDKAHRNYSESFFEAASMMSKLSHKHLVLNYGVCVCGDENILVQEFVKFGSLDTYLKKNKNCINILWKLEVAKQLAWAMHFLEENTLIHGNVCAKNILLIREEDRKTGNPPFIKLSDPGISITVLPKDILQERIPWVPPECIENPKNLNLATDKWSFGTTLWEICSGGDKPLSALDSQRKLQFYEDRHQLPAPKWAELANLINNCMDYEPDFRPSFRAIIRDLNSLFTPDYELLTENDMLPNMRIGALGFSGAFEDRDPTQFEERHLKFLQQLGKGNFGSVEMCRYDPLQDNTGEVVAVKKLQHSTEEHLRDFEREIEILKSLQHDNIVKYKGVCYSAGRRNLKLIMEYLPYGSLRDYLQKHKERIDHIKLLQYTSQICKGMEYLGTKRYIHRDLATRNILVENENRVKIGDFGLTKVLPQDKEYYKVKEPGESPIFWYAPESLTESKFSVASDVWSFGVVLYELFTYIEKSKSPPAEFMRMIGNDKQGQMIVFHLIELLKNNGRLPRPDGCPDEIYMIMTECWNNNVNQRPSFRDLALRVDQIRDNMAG

Row | Structure (SMILES) | IC50 [1] [nM] | IC50 [2] [nM] | IC50 [3] [nM] | IC50 [4] [nM]
1 | N#CC[C@H](OCC1CCC(N2C=CC(=O)C3C=Nc4[nH]ccc4C32)CC1)C(F)(F)F (stereo partly drawn) | 5.1 | 0.74 | 11 | 2
2 | O=C1NC(=O)[C@@H](C2CCC(COCCC(F)(F)F)CC2)C2c3cc[nH]c3N=CC12 (stereo partly drawn) | 2.9 | 0.35 | 26 | 1.5
3 | O=C1C=CN(C2CCC(COCC(F)(F)F)CC2)C2c3cc[nH]c3N=CC12 (stereo not drawn) | 2.7 | 0.59 | 10 | –
4 | N#CC[C@@H](NCC1CCC(N2C=CC(=O)C3C=Nc4[nH]ccc4C32)CC1)C(F)(F)F (stereo partly drawn) | 10 | 1.7 | 18 | 5.1
5 | Cc1cnn(CC2CCC(N3C=CC(=O)C4C=Nc5[nH]ccc5C43)CC2)c1 (stereo not drawn) | 7.1 | 0.41 | 39 | 1.9
6 | O=C1C=CN(C2CCC(COCCC(F)(F)F)CC2)C2c3cc[nH]c3N=CC12 (stereo not drawn) | 2.5 | 0.68 | 19 | 1.6
